Results from US9078871B2, “Estrogen receptor modulators and uses thereof” (SERAGON PHARMACEUTICALS, INC., priority 2010, dated 2015).

Legend:
Type in all cases: cell-based
ER-α [1] = target: T1, ER-α (Homo sapiens, UniProt P03372); assay: ER-α In Cell Western Assay (ER1D5); conditions: MCF-7 cells, ER1D5 antibody, 4 or 24 hr post compound addition, read-out: ER In-Cell Western Assay (ER1D5); for Emax: MCF7, Max Response; for DC50: IC50
T1 construct: endogenous in cells; host or cells: MCF-7
T1 sequence (P03372 1-595): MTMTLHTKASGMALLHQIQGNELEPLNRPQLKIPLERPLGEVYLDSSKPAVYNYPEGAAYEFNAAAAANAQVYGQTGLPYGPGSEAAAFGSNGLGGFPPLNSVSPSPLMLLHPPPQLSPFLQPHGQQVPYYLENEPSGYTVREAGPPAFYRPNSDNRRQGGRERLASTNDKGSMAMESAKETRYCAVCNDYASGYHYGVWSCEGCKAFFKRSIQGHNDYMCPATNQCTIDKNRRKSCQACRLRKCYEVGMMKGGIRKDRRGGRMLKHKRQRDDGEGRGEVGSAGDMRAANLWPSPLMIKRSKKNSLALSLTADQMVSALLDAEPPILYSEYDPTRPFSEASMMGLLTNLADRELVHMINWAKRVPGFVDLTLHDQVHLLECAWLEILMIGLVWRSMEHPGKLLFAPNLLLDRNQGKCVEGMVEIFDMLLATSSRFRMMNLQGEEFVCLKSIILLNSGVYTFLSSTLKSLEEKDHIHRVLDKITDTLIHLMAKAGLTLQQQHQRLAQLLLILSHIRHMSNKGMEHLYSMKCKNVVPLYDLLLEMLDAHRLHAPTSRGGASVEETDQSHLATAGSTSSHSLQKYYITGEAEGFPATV
Experimental: MCF-7 cells were adjusted to a concentration of 200,000 cells per mL in RPMI containing 10% charcoal-stripped FBS and 20 mM HEPES. 16 microliters of the cell suspension (3200 cells) was added to each well of a poly-D-lysine 384 well plate, and the cells were incubated overnight to allow the cells to adhere. The following day an eleven point, serial semilog dilution of each compound was added to the cells in 16 μL at a final concentration ranging from 0.3-0.000003 μM. At 4 or 24 hr post compound addition, the cells were fixed (10% formalin in PBS) for 20 minutes. Cells were permeabalized in PBS 0.1% Triton and blocked with LICOR blocking buffer (50 μl/well, 90′). The wells were then incubated overnight at 4° C. with ER1D5 (Santa Cruz Biotechnology) diluted 1:100 in LICOR blocking buffer/0.1% Tween-20. Wells which were treated with blocking buffer with Tween but no antibody were used as a background control. Wells were washed with 0.1% Tween-20/PBS and then incubated in goat anti-mouse IRDye™ 800CW (LICOR Inc.; 1:1000) and DRAQ5 DNA dye (1:2000 for 2 mM stock) diluted in LICOR blocking buffer containing 0.1% Tween-20 and 0.01% SDS for 60 minutes. Cells were washed (50 μl/well, 5′ each) in 0.1% Tween-20/PBS. Plates were scanned on a LICOR Odyssey infrared imaging system. Integrated intensities in the 800 nm channel and 700 nm channel were measured to determine levels of ER and DNA respectively. Percent ER levels were determined as follows: (Integrated intensity 800 nm sample/integrated intensity 700 nm sample)/(Integrated intensity 800 nm untreated cells/integrated intensity 700 nm untreated cells)×100=% ER levels.

MCF-7 cells = assay: Breast Cancer Cell Viability Assay (MCF7 Viability Assay); conditions: 5 days' compound exposure, CellTiter-Glo; for IC50: Homo sapiens, MCF7, 120 h
Method in brief: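 MCF-7 cells, 320 per well in RPMI with 10% FBS and 20 mM HEPES, adhered overnight, then exposed 5 days to an eleven-point semilog dilution (final 0.3–0.000003 μM). CellTiter-Glo luminescence; % viability relative to untreated cells after subtracting cell-free background.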

ER-α [2] = target: T1, ER-α; assay: ER-α in Cell Western Assay (SP1); conditions: MCF-7 cells, SP1 rabbit monoclonal Ab, 4 or 24 hr post compound addition, read-out: ER In-Cell Western Assay (SP1); for Emax: MCF7, Max Response; for DC50: IC50
Method in brief: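 MCF-7 cells in charcoal-stripped FBS medium treated with 11-point semilog dilutions (0.3–0.000003 μM final) for 4 or 24 hr, then fixed and immunostained with SP1 anti-ER antibody. ER signal (800 nm) normalized to DRAQ5 DNA signal (700 nm) and expressed as % of untreated cells.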

Structure (SMILES) | Emax (ER-α [1]) | DC50 (ER-α [1]) | MCF7 Viability Assay Max Response (MCF-7 cells) | IC50 (MCF-7 cells) | Emax (ER-α [2]) | DC50 (ER-α [2])
CC1=C(c2cccc(O)c2)C(c2ccc(OCCn3ccnc3)cc2)Oc2ccc(O)cc21 (stereo not drawn) [Example 16] | < 40% | > 1 nM | + (+ = a single % value <50%) | ≤ 1 nM | < 60% | ≤ 1 nM
CC1=C(c2cccc(O)c2)C(c2ccc(OCCN3CCCCCC3)cc2)Oc2ccc(O)cc21 (stereo not drawn) [Example 17, 2-(4-(2-(Azepan-1-yl)ethoxy)phenyl)-3-(3-hydroxyphenyl)-4-methyl-2H-chromen-6-ol] | 40 to 65% | ≤ 1 nM | + (+ = a single % value <50%) | ≤ 1 nM | 60 to 85% | ≤ 1 nM
CC1=C(c2cccc(O)c2)C(c2ccc(OC[C@H](C)N3CCC(C)(C)C3)cc2)Oc2ccc(O)cc21 (stereo partly drawn) [Example 18, 2-(4-((S)-2-(3,3-Dimethylpyrrolidin-1-yl)propoxy)phenyl)-3-(3-hydroxyphenyl)-4-methyl-2H-chromen-6-ol] | ≥ 65% | ≤ 1 nM | ++ (++ = a single % value ≧50%) | ≤ 1 nM | 60 to 85% | ≤ 1 nM
CC1=C(c2cccc(O)c2)C(c2ccc(OCCN3CCC(C)(C)C3)cc2)Oc2ccc(O)cc21 (stereo not drawn) [Example 19, 2-(4-(2-(3,3-Dimethylpyrrolidin-1-yl)ethoxy)phenyl)-3-(3-hydroxyphenyl)-4-methyl-2H-chromen-6-ol] | ≥ 65% | ≤ 1 nM | ++ (++ = a single % value ≧50%) | ≤ 1 nM | 60 to 85% | ≤ 1 nM
CC1=C(c2cccc(O)c2)C(c2ccc(OCCN3CCC[C@H]3C)cc2)Oc2ccc(O)cc21 (stereo partly drawn) [Example 20, 3-(3-Hydroxyphenyl)-4-methyl-2-(4-(2-((R)-2-methylpyrrolidin-1-yl)ethoxy)phenyl)-2H-chromen-6-ol] | 40 to 65% | ≤ 1 nM | ++ (++ = a single % value ≧50%) | ≤ 1 nM | 60 to 85% | ≤ 1 nM
CC1=C(c2cccc(O)c2)C(c2ccc(OCCN3CCC(C)CC3)cc2)Oc2ccc(O)cc21 (stereo not drawn) [Example 21, 3-(3-Hydroxyphenyl)-4-methyl-2-(4-(2-(4-methylpiperidin-1-yl)ethoxy)phenyl)-2H-chromen-6-ol] | 40 to 65% | ≤ 1 nM | ++ (++ = a single % value ≧50%) | ≤ 1 nM | 60 to 85% | ≤ 1 nM
CC1=C(c2cccc(O)c2)C(c2ccc(NCCN3CCCC3)cc2)Oc2ccc(O)cc21 (stereo not drawn) [Example 22, 3-(3-Hydroxyphenyl)-4-methyl-2-(4-((2-(pyrrolidin-1-yl)ethyl)amino)phenyl)-2H-chromen-6-ol] | 40 to 65% | > 1 nM | + (+ = a single % value <50%) | ≤ 1 nM | 60 to 85% | ≤ 1 nM
CC1=C(c2cccc(O)c2)C(c2ccc(OC[C@H](C)N3CCC[C@H]3C)cc2)Oc2ccc(O)cc21 (stereo partly drawn) [Example 23, 3-(3-Hydroxyphenyl)-4-methyl-2-(4-((S)-2-((R)-2-methylpyrrolidin-1-yl)propoxy)phenyl)-2H-chromen-6-ol] | ≥ 65% | ≤ 1 nM | ++ (++ = a single % value ≧50%) | ≤ 1 nM | ≥ 85% | ≤ 1 nM
CC1=C(c2cccc(O)c2)C(c2ccc(OC[C@H](C)N3CCC[C@@H]3C)cc2)Oc2ccc(O)cc21 (stereo partly drawn) [Example 24, 3-(3-Hydroxyphenyl)-4-methyl-2-(4-((S)-2-((S)-2-methylpyrrolidin-1-yl)propoxy)phenyl)-2H-chromen-6-ol] | 40 to 65% | ≤ 1 nM | + (+ = a single % value <50%) | ≤ 1 nM | < 60% | ≤ 1 nM
CC1=C(c2cccc(O)c2)C(c2ccc(OCCN3CCCCCCC3)cc2)Oc2ccc(O)cc21 (stereo not drawn) [Example 25, 2-(4-(2-(Azocan-1-yl)ethoxy)phenyl)-3-(3-hydroxyphenyl)-4-methyl-2H-chromen-6-ol] | < 40% | ≤ 1 nM | + (+ = a single % value <50%) | ≤ 1 nM | < 60% | ≤ 1 nM
CC1=C(c2cccc(O)c2)C(c2ccc(OCCN3CCCC3)cc2)Oc2cc(O)ccc21 (stereo not drawn) [Example 26, 3-(3-Hydroxyphenyl)-4-methyl-2-(4-(2-(pyrrolidin-1-yl)ethoxy)phenyl)-2H-chromen-7-ol] | 40 to 65% | ≤ 1 nM | ++ (++ = a single % value ≧50%) | ≤ 1 nM | 60 to 85% | ≤ 1 nM
CC1=C(c2cccc(O)c2)C(c2ccc(OC[C@H](C)N3CC[C@@H](C)C3)cc2)Oc2cc(O)ccc21 (stereo partly drawn) [Example 27, 3-(3-Hydroxyphenyl)-4-methyl-2-(4-((S)-2-((R)-3-methylpyrrolidin-1-yl)propoxy)phenyl)-2H-chromen-7-ol] | ≥ 65% | ≤ 1 nM | ++ (++ = a single % value ≧50%) | ≤ 1 nM | ≥ 85% | ≤ 1 nM
CC1=C(c2ccc(O)cc2)C(c2ccc(OC[C@H](C)N3CC[C@@H](C)C3)cc2)Oc2cc(O)ccc21 (stereo partly drawn) [Example 28, 3-(4-Hydroxyphenyl)-4-methyl-2-(4-((S)-2-((R)-3-methylpyrrolidin-1-yl)propoxy)phenyl)-2H-chromen-7-ol] | ≥ 65% | ≤ 1 nM | ++ (++ = a single % value ≧50%) | ≤ 1 nM | ≥ 85% | ≤ 1 nM
CC1=C(c2ccccc2)C(c2ccc(OC[C@H](C)N3CC[C@@H](C)C3)cc2)Oc2ccc(O)cc21 (stereo partly drawn) [Example 29, 4-Methyl-2-(4-((S)-2-((R)-3-methylpyrrolidin-1-yl)propoxy)phenyl)-3-phenyl-2H-chromen-6-ol] | ≥ 65% | ≤ 1 nM | ++ (++ = a single % value ≧50%) | ≤ 1 nM | 60 to 85% | ≤ 1 nM
CC1=C(c2ccc(O)cc2)C(c2ccc(OC[C@H](C)N3CC[C@@H](C)C3)cc2)Oc2ccc(O)cc21 (stereo partly drawn) [Example 31, 3-(4-Hydroxyphenyl)-4-methyl-2-(4-((S)-2-((R)-3-methylpyrrolidin-1-yl)propoxy)phenyl)-2H-chromen-6-ol] | ≥ 65% | ≤ 1 nM | ++ (++ = a single % value ≧50%) | ≤ 1 nM | ≥ 85% | ≤ 1 nM
CC1=C(c2cccc(F)c2)C(c2ccc(OC[C@H](C)N3CC[C@@H](C)C3)cc2)Oc2ccc(O)cc21 (stereo partly drawn) [Example 32, 3-(3-Fluorophenyl)-4-methyl-2-(4-((S)-2-((R)-3-methylpyrrolidin-1-yl)propoxy)phenyl)-2H-chromen-6-ol] | ≥ 65% | ≤ 1 nM | + (+ = a single % value <50%) | ≤ 1 nM | ≥ 85% | ≤ 1 nM
